Values quoted from earlier work, collected in PMC11887077 (BMC Cancer, 2025).

System: NRP1
Conditions: in vitro

In the case of CLKADK [CK2], the “affinity with NRP1 compared with CK3” value is listed as “higher affinity”.
